Laboratory results: ChEMBL document CHEMBL4673219, “Novel 5,6-disubstituted pyrrolo[2,3-d]pyrimidine derivatives as broad spectrum antiproliferative agents: Synthesis, cell based assays, kinase profile and molecular docking study” (Bioorg Med Chem, 2018)
Values joined by “and” are separate entries in the source; they are usually repeats but may differ in a detail not shown here. Equal values may be shown once.

Legend:
Format in all cases: functional
MDA-MB-231 = experiment: Growth inhibition of human MDA-MB-231/ATCC cells incubated for 48 hrs by sulforhodamine B assay
SR = experiment: Growth inhibition of human SR cells assessed as growth percentage at 100 uM incubated for 48 hrs by sulforhodamine B assay relative to control; conditions: read-out: Activity
NCI-H522 [1] = experiment: Growth inhibition of human NCI-H522 cells incubated for 48 hrs by sulforhodamine B assay
NCI/ADR-RES = experiment: Growth inhibition of human NCI/ADR-RES cells incubated for 48 hrs by sulforhodamine B assay; conditions: Homo sapiens, NCI/ADR-RES
RXF 393 = experiment: Growth inhibition of human RXF 393 cells assessed as growth percentage at 10 uM incubated for 48 hrs by sulforhodamine B assay relative to control; conditions: read-out: Activity
NCI-H23 = experiment: Growth inhibition of human NCI-H23 cells assessed as growth percentage at 0.1 uM incubated for 48 hrs by sulforhodamine B assay relative to control; conditions: read-out: Activity
OVCAR-8 = experiment: Growth inhibition of human OVCAR-8 cells assessed as growth percentage at 0.01 uM incubated for 48 hrs by sulforhodamine B assay relative to control; conditions: read-out: Activity
UO-31 = experiment: Growth inhibition of human UO-31 cells incubated for 48 hrs by sulforhodamine B assay
MDA-MB-468 = experiment: Growth inhibition of human MDA-MB-468 cells assessed as growth percentage at 100 uM incubated for 48 hrs by sulforhodamine B assay relative to control; conditions: read-out: Activity
MCF7 = experiment: Growth inhibition of human MCF7 cells incubated for 48 hrs by sulforhodamine B assay
CCRF-CEM [2] = experiment: Growth inhibition of human CCRF-CEM cells incubated for 48 hrs by sulforhodamine B assay; conditions: 48 h
KM12 = experiment: Growth inhibition of human KM12 cells incubated for 48 hrs by sulforhodamine B assay
BT-549 [3] = experiment: Growth inhibition of human BT-549 cells incubated for 48 hrs by sulforhodamine B assay
HCT-116 = experiment: Growth inhibition of human HCT-116 cells incubated for 48 hrs by sulforhodamine B assay; conditions: for CC50: read-out: LC50 (the source's name)
UACC-62 = experiment: Growth inhibition of human UACC-62 cells assessed as growth percentage at 1 uM incubated for 48 hrs by sulforhodamine B assay relative to control; conditions: read-out: Activity
BT-549 [4] = experiment: Growth inhibition of human BT-549 cells assessed as growth percentage at 10 uM incubated for 48 hrs by sulforhodamine B assay relative to control; conditions: read-out: Activity
M14 [5] = experiment: Growth inhibition of human M14 cells assessed as growth percentage at 0.01 uM incubated for 48 hrs by sulforhodamine B assay relative to control; conditions: read-out: Activity
NCI-H226 [6] = experiment: Growth inhibition of human NCI-H226 cells assessed as growth percentage at 100 uM incubated for 48 hrs by sulforhodamine B assay relative to control; conditions: read-out: Activity
NCI-H226 [7] = experiment: Growth inhibition of human NCI-H226 cells assessed as growth percentage at 10 uM incubated for 48 hrs by sulforhodamine B assay relative to control; conditions: read-out: Activity
M14 [8] = experiment: Growth inhibition of human M14 cells incubated for 48 hrs by sulforhodamine B assay
CCRF-CEM [9] = experiment: Growth inhibition of human CCRF-CEM cells assessed as growth percentage at 0.01 uM incubated for 48 hrs by sulforhodamine B assay relative to control; conditions: read-out: Activity
MDA-MB-435 = experiment: Growth inhibition of human MDA-MB-435 cells assessed as growth percentage at 100 uM incubated for 48 hrs by sulforhodamine B assay relative to control; conditions: read-out: Activity
UACC-257 = experiment: Growth inhibition of human UACC-257 cells assessed as growth percentage at 0.1 uM incubated for 48 hrs by sulforhodamine B assay relative to control; conditions: read-out: Activity
SK-MEL-28 = experiment: Growth inhibition of human SK-MEL-28 cells incubated for 48 hrs by sulforhodamine B assay
SNB-19 = experiment: Growth inhibition of human SNB-19 cells assessed as growth percentage at 10 uM incubated for 48 hrs by sulforhodamine B assay relative to control; conditions: read-out: Activity
A549 = experiment: Growth inhibition of human A549/ATCC cells assessed as growth percentage at 1 uM incubated for 48 hrs by sulforhodamine B assay relative to control; conditions: read-out: Activity
Malme-3M [10] = experiment: Growth inhibition of human Malme-3M cells assessed as growth percentage at 0.01 uM incubated for 48 hrs by sulforhodamine B assay relative to control; conditions: read-out: Activity
MOLT-4 = experiment: Growth inhibition of human MOLT-4 cells assessed as growth percentage at 1 uM incubated for 48 hrs by sulforhodamine B assay relative to control; conditions: read-out: Activity
OVCAR-4 = experiment: Growth inhibition of human OVCAR-4 cells assessed as growth percentage at 0.1 uM incubated for 48 hrs by sulforhodamine B assay relative to control; conditions: read-out: Activity
SF-268 = experiment: Growth inhibition of human SF-268 cells assessed as growth percentage at 0.01 uM incubated for 48 hrs by sulforhodamine B assay relative to control; conditions: read-out: Activity
HL-60(TB) = experiment: Growth inhibition of human HL-60(TB) cells assessed as growth percentage at 10 uM incubated for 48 hrs by sulforhodamine B assay relative to control; conditions: read-out: Activity
SNB-75 [11] = experiment: Growth inhibition of human SNB-75 cells incubated for 48 hrs by sulforhodamine B assay
Malme-3M [12] = experiment: Growth inhibition of human Malme-3M cells assessed as growth percentage at 1 uM incubated for 48 hrs by sulforhodamine B assay relative to control; conditions: read-out: Activity
OVCAR-3 = experiment: Growth inhibition of human OVCAR-3 cells assessed as growth percentage at 1 uM incubated for 48 hrs by sulforhodamine B assay relative to control; conditions: read-out: Activity
NCI-H322M = experiment: Growth inhibition of human NCI-H322M cells incubated for 48 hrs by sulforhodamine B assay; conditions: Homo sapiens, NCI-H322M
NCI-H522 [13] = experiment: Growth inhibition of human NCI-H522 cells assessed as growth percentage at 1 uM incubated for 48 hrs by sulforhodamine B assay relative to control; conditions: read-out: Activity
SNB-75 [14] = experiment: Growth inhibition of human SNB-75 cells assessed as growth percentage at 10 uM incubated for 48 hrs by sulforhodamine B assay relative to control; conditions: read-out: Activity
[15] = read-out: LC50 (the source's name)

## CCCCCCCC(=O)Nc1nc2[nH]c(CN3CCN(Cc4cccc(F)c4)CC3)c(CN3CCN(Cc4cccc(F)c4)CC3)c2c(=O)[nH]1
MDA-MB-231; 48 h
  GI50: 590 nM
MDA-MB-231; Homo sapiens, MDA-MB-231
  TGI: 1960 nM
MDA-MB-231; Homo sapiens, MDA-MB-231, 48 h
  GI50: 587 nM
MDA-MB-231; Homo sapiens, MDA-MB-231, read-out: LC50 (the source's name)
  CC50: 5380 nM
SR
  growth at 100 µM: -12%
NCI-H522 [1]
  GI50: 1910 nM
  LC50: 6880 nM
  TGI: 3620 nM
NCI/ADR-RES
  GI50: 1500 nM
  TGI: 3010 nM
NCI/ADR-RES; [15]
  CC50: 6040 nM
RXF 393
  growth at 10 µM: -92.4%
NCI-H23
  growth at 0.1 µM: 100%
OVCAR-8
  growth at 0.01 µM: 102%
UO-31; 48 h
  GI50: 3800 nM and 380 nM
UO-31; Homo sapiens, UO-31
  LC50 (concentration killing 50% of cells): 4810 nM
UO-31; Homo sapiens, UO-31, 48 h
  TGI: 1700 nM
MDA-MB-468
  growth at 100 µM: -75%
MCF7; 48 h
  GI50: 190 nM
  LC50: 990 nM
  TGI: 430 nM
MCF7; Homo sapiens, MCF7, 48 h
  GI50: 186 nM
  LC50: 985 nM
  TGI: 428 nM
CCRF-CEM [2]
  GI50: 250 nM
  LC50: 100000 nM and > 1000 nM
CCRF-CEM [2]; Homo sapiens, CCRF-CEM
  GI50: 251 nM
KM12; 48 h
  GI50: 720 nM
KM12; Homo sapiens, KM12
  TGI: 2380 nM
KM12; Homo sapiens, KM12, 48 h
  GI50: 719 nM
BT-549 [3]
  GI50: 1530 nM
  TGI: 2920 nM
BT-549 [3]; [15]
  CC50: 5580 nM
HCT-116; 48 h
  GI50: 170 nM
  TGI: 320 nM
  CC50: 600 nM
HCT-116; Homo sapiens, HCT-116, 48 h
  GI50: 171 nM
  TGI: 321 nM
  CC50: 601 nM
UACC-62
  growth at 1 µM: 92%
BT-549 [4]
  growth at 10 µM: 29%
M14 [5]
  growth at 0.01 µM: 100%
NCI-H226 [6]
  growth at 100 µM: -94%
NCI-H226 [7]
  growth at 10 µM: 87.6%
M14 [8]; 48 h
  GI50: 210 nM
  TGI: 470 nM
M14 [8]; Homo sapiens, M14
  LC50 (50% lethal concentration): 1240 nM
M14 [8]; Homo sapiens, M14, 48 h
  GI50: 205 nM
  TGI: 466 nM
CCRF-CEM [9]
  growth at 0.01 µM: 98%
MDA-MB-435
  growth at 100 µM: -83%
UACC-257
  growth at 0.1 µM: 94%
SK-MEL-28
  GI50: 1790 nM
  TGI: 3620 nM
SNB-19
  growth at 10 µM: -81.6%
A549
  growth at 1 µM: 8%
Malme-3M [10]
  growth at 0.01 µM: 98%
MOLT-4
  growth at 1 µM: -15%
OVCAR-4
  growth at 0.1 µM: 84%
SF-268
  growth at 0.01 µM: 99%
HL-60(TB)
  growth at 10 µM: -60.1%
SNB-75 [11]
  GI50: 1340 nM
  LC50 (lethal concentration, 50% cell kill): 5280 nM
  TGI: 2660 nM
Malme-3M [12]
  growth at 1 µM: 40%
OVCAR-3
  growth at 1 µM: 44%
NCI-H322M
  GI50: 1460 nM
  TGI: 2920 nM
NCI-H322M; 48 h, read-out: LC50 (the source's name)
  CC50: 5830 nM
NCI-H522 [13]
  growth at 1 µM: 100%
SNB-75 [14]
  growth at 10 µM: -99.2%
